Reference: US12617783B2, “Heterocyclic GLP-1R agonists” (BIOMEA FUSION, INC., priority 2024, dated 2026)
pEC50: −log10 of the molar value.

biological target: T1, human GLP-1R (Homo sapiens, UniProt P43220); test: GLP-1R cAMP assay (Example B1a, HTRF, 30 min at room temperature); assay type: cell-based; conditions: Table 1c, comparative compound; read-out: EC50
T1 construct: host or cells: HEK293
Procedure, shortened: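 Competitive HTRF read-out of cAMP after 30 min room-temperature stimulation, BETP absent, of human GLP-1R-HEK293 cells (1,000/well) in HEPES buffer with 500 μM IBMX and 0.1% BSA. Activation normalised to GLP-1(7-37) positive control. EC50 from 4-parameter non-linear regression.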

T1 sequence (P43220 24-463): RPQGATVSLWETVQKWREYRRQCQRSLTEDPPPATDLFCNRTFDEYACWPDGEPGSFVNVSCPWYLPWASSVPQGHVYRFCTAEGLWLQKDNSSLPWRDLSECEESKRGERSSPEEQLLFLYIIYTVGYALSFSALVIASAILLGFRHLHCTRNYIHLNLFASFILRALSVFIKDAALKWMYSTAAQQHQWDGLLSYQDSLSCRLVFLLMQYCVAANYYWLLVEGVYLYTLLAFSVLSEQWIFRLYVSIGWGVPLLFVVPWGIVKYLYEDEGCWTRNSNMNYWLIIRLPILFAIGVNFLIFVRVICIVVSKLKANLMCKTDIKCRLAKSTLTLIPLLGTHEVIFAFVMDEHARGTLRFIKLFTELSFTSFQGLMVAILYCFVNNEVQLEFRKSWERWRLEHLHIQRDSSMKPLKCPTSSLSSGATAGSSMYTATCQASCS

| pEC50 | SMILES |
| --- | --- |
| 7.94 | CCP(=O)(CC)c1ccc(-n2ccn(-c3c4c(nn3-c3cc(C)c(F)c(C)c3)CCN(C(=O)c3cc5cc(C6CCOCC6)ccc5n3[C@@]3(c5noc(=O)[nH]5)C[C@@H]3C)[C@H]4C)c2=O)cc1NC [Compound 405] |

same assay, conditions: Table 1d, stereoisomer pairs; read-out: EC50

| SMILES | pEC50 |
| --- | --- |
| Cc1cc(-n2nc3c(c2-n2ccn(-c4ccc5c(cnn5C)c4F)c2=O)[C@H]2CC[C@@H](C3)N2C(=O)c2cc3cc([C@H]4CCOC5(CC5)C4)ccc3n2[C@@]2(c3noc(=O)[nH]3)C[C@@H]2C)cc(C)c1F [Compound 411, 3-((1S,2S)-1-(2-((4R,7S)-3-(3-(4-fluoro-1-methyl-1H-indazol-5-yl)-2-oxo-2,3-dihydro-1H-imidazol-1-yl)-2-(4-fluoro-3,5-dimethylphenyl)-2,4,5,6,7,8-hexahydro-4,7-epiminocyclohepta [c]pyrazole-9-carbonyl)-5-((S)-4-oxaspiro[2.5]octan-7-yl)-1H-indol-1-yl)-2-methylcyclopropyl)-1,2,4-oxadiazol-5 (4H)-one] | 6.19 |

same assay, conditions: cAMP accumulation in HEK293 expressing human GLP-1R, no BETP, 30 min room temperature (Method B1a, compounds ID 1-609), Table 1; read-out: EC50

| SMILES | pEC50 |
| --- | --- |
| Cc1cc(-n2nc3c(c2-n2ccn(-c4ccc5c(cnn5C)c4F)c2=O)[C@@H]2CC[C@H](C3)N2C(=O)c2cc3cc([C@@H]4CCOC(C)(C)C4)cnc3n2[C@@]2(c3noc(=O)[nH]3)C[C@@H]2C)cc(C)c1F [Compound 312, 3-((1S,2S)-1-(5-((R)-2,2-dimethyltetrahydro-2H-pyran-4-yl)-2-((4S,7R)-3-(3-(4-fluoro-1-methyl-1H-indazol-5-yl)-2-oxo-2,3-dihydro-1H-imidazol-1-yl)-2-(4-fluoro-3,5-dimethylphenyl)-2,4,5,6,7,8-hexahydro-4,7-epiminocyclohepta [c]pyrazole-9-carbonyl)-1H-pyrrolo[2,3-b]pyridin-1-yl)-2-methylcyclopropyl)-1,2,4-oxadiazol-5(4H)-one] | 5.87 |
| Cc1cc(-n2nc3c(c2-n2ccn(-c4ccc5c(cnn5C)c4F)c2=O)[C@@H]2CC[C@H](C3)N2C(=O)c2cc3ccc([C@H]4CCOC(C)(C)C4)cc3nc2[C@@]2(c3noc(=O)[nH]3)C[C@@H]2C)cc(C)c1F [Compound 318, 3-[(1R,2S)-1-[7-[(4S)-2,2-dimethyltetrahydropyran-4-yl]-3-[(1S,8R)-4-(4-fluoro-3,5-dimethyl-phenyl)-3-[3-(4-fluoro-1-methyl-indazol-5-yl)-2-oxo-imidazol-1-yl]-4,5,11-triazatricyclo[6.2.1.02,6]undeca-2,5-diene-11-carbonyl]-2-quinolyl]-2-methyl-cyclopropyl]-4H-1,2,4-oxadiazol-5-one] | 6.06 |
| Cc1cc(-n2nc3c(c2-n2ccn(-c4ccc5c(cnn5C)c4F)c2=O)[C@@H]2CC[C@H](C3)N2C(=O)c2cc3ccc([C@@H]4CCOC(C)(C)C4)cc3nc2[C@@]2(c3noc(=O)[nH]3)C[C@@H]2C)cc(C)c1F [Compound 319, 3-[(1R,2S)-1-[7-[(4R)-2,2-dimethyltetrahydropyran-4-yl]-3-[(1S,8R)-4-(4-fluoro-3,5-dimethyl-phenyl)-3-[3-(4-fluoro-1-methyl-indazol-5-yl)-2-oxo-imidazol-1-yl]-4,5,11-triazatricyclo[6.2.1.02,6]undeca-2,5-diene-11-carbonyl]-2-quinolyl]-2-methyl-cyclopropyl]-4H-1,2,4-oxadiazol-5-one] | 6.33 |
| Cc1cc(-n2nc3c(c2-n2ccn(-c4ccc5c(cnn5C)c4F)c2=O)[C@@H]2CC[C@H](C3)N2C(=O)c2cc3cn(C4CCOC(C)(C)C4)c(=O)cc3n2[C@@]2(c3noc(=O)[nH]3)C[C@@H]2C)cc(C)c1F (stereo partly drawn) [Compound 324, 3-[(1S,2S)-1-[5-(2,2-dimethyltetrahydropyran-4-yl)-2-[(1S,8R)-4-(4-fluoro-3,5-dimethyl-phenyl)-3-[3-(4-fluoro-1-methyl-indazol-5-yl)-2-oxo-imidazol-1-yl]-4,5,11-triazatricyclo[6.2.1.02,6]undeca-2,5-diene-11-carbonyl]-6-oxo-pyrrolo[3,2-c]pyridin-1-yl]-2-methyl-cyclopropyl]-4H-1,2,4-oxadiazol-5-one] | 6.58 |
| Cc1cc(-n2nc3c(c2-n2ccn(-c4ccc5c(cnn5C)c4F)c2=O)[C@H]2CC[C@@H](C3)N2C(=O)c2cc3cc([C@H]4CCOC5(CC5)C4)ccc3n2[C@@]2(c3noc(=O)[nH]3)C[C@@H]2C)cc(C)c1F [Compound 411, 3-((1S,2S)-1-(2-((4R,7S)-3-(3-(4-fluoro-1-methyl-1H-indazol-5-yl)-2-oxo-2,3-dihydro-1H-imidazol-1-yl)-2-(4-fluoro-3,5-dimethylphenyl)-2,4,5,6,7,8-hexahydro-4,7-epiminocyclohepta [c]pyrazole-9-carbonyl)-5-((S)-4-oxaspiro[2.5]octan-7-yl)-1H-indol-1-yl)-2-methylcyclopropyl)-1,2,4-oxadiazol-5 (4H)-one] | 6.19 |
| Cc1cc(-n2nc3c(c2-n2ccn(-c4ccc(C(N)=O)c(F)c4)c2=O)[C@@H]2CC[C@H](C3)N2C(=O)c2cc3cc([C@H]4CCOC(C)(C)C4)ccc3n2[C@@]2(c3noc(=O)[nH]3)C[C@@H]2C)cc(C)c1F [Compound 412, 4-[3-[(1S,8R)-11-[5-[(4S)-2,2-dimethyltetrahydropyran-4-yl]-1-[(1S,2S)-2-methyl-1-(5-oxo-4H-1,2,4-oxadiazol-3-yl)cyclopropyl]indole-2-carbonyl]-4-(4-fluoro-3,5-dimethyl-phenyl)-4,5,11-triazatricyclo[6.2.1.02,6]undeca-2,5-dien-3-yl]-2-oxo-imidazol-1-yl]-2-fluoro-benzamide] | 6.26 |
| Cc1cc(-n2nc3c(c2-n2ccn(-c4ccc5c(cnn5C)c4F)c2=O)[C@@H]2CC[C@H](C3)N2C(=O)c2cc3cc(C4CCOC4(C)C)ccc3n2[C@@]2(c3noc(=O)[nH]3)C[C@@H]2C)cc(C)c1F (stereo partly drawn) [Compound 413, 3-[(1S,2S)-1-[5-(2,2-dimethyltetrahydrofuran-3-yl)-2-[(1S,8R)-4-(4-fluoro-3,5-dimethyl-phenyl)-3-[3-(4-fluoro-1-methyl-indazol-5-yl)-2-oxo-imidazol-1-yl]-4,5,11-triazatricyclo[6.2.1.02,6]undeca-2,5-diene-11-carbonyl]indol-1-yl]-2-methyl-cyclopropyl]-4H-1,2,4-oxadiazol-5-one] | 5.75 |

Next, values leading:

| pEC50 | SMILES |
| --- | --- |
| 6.74 | Cc1cc(-n2nc3c(c2-n2ccn(-c4ccc5c(cnn5C(F)F)c4F)c2=O)[C@@H]2CC[C@H](C3)N2C(=O)c2cc3cc([C@H]4CCOC(C)(C)C4)ccc3n2[C@@]2(c3noc(=O)[nH]3)C[C@@H]2C)cc(C)c1F [Compound 310, 3-((1S,2S)-1-(2-((4S,7R)-3-(3-(1-(difluoromethyl)-4-fluoro-1H-indazol-5-yl)-2-oxo-2,3-dihydro-1H-imidazol-1-yl)-2-(4-fluoro-3,5-dimethylphenyl)-2,4,5,6,7,8-hexahydro-4,7-epiminocyclohepta [c]pyrazole-9-carbonyl)-5-((S)-2,2-dimethyltetrahydro-2H-pyran-4-yl)-1H-indol-1-yl)-2-methylcyclopropyl)-1,2,4-oxadiazol-5(4H)-one] |
| 7.24 | Cc1cc(-n2nc3c(c2-n2ccn(-c4ccc5c(cnn5C)c4F)c2=O)[C@@H]2CC[C@H](C3)N2C(=O)c2cc3cc(C4CCOC(C)(C)C4)cnc3n2[C@@]2(c3noc(=O)[nH]3)C[C@@H]2C)cc(C)c1F (stereo partly drawn) [Compound 311, 3-((1S,2S)-1-(5-(2,2-dimethyltetrahydro-2H-pyran-4-yl)-2-((4S,7R)-3-(3-(4-fluoro-1-methyl-1H-indazol-5-yl)-2-oxo-2,3-dihydro-1H-imidazol-1-yl)-2-(4-fluoro-3,5-dimethylphenyl)-2,4,5,6,7,8-hexahydro-4,7-epiminocyclohepta [c]pyrazole-9-carbonyl)-1H-pyrrolo[2,3-b]pyridin-1-yl)-2-methylcyclopropyl)-1,2,4-oxadiazol-5(4H)-one] |
| 7.73 | Cc1cc(-n2nc3c(c2-n2ccn(-c4ccc5c(cnn5C)c4F)c2=O)[C@@H]2CC[C@H](C3)N2C(=O)c2cc3cc([C@H]4CCOC(C)(C)C4)cnc3n2[C@@]2(c3noc(=O)[nH]3)C[C@@H]2C)cc(C)c1F [Compound 313, 3-((1S,2S)-1-(5-((S)-2,2-dimethyltetrahydro-2H-pyran-4-yl)-2-((4S,7R)-3-(3-(4-fluoro-1-methyl-1H-indazol-5-yl)-2-oxo-2,3-dihydro-1H-imidazol-1-yl)-2-(4-fluoro-3,5-dimethylphenyl)-2,4,5,6,7,8-hexahydro-4,7-epiminocyclohepta [c]pyrazole-9-carbonyl)-1H-pyrrolo[2,3-b]pyridin-1-yl)-2-methylcyclopropyl)-1,2,4-oxadiazol-5 (4H)-one] |
| 7.10 | Cc1cc(-n2nc3c(c2-n2ccn(-c4ccc5c(cnn5C)c4)c2=O)[C@@H]2CC[C@H](C3)N2C(=O)c2cc3cc([C@H]4CCOC5(CC5)C4)ccc3n2[C@@]2(c3noc(=O)[nH]3)C[C@@H]2C)cc(C)c1F [Compound 323, 3-[(1S,2S)-1-[2-[(1S,8R)-4-(4-fluoro-3,5-dimethyl-phenyl)-3-[3-(1-methylindazol-5-yl)-2-oxo-imidazol-1-yl]-4,5,11-triazatricyclo[6.2.1.02,6]undeca-2,5-diene-11-carbonyl]-5-[(7S)-4-oxaspiro[2.5]octan-7-yl]indol-1-yl]-2-methyl-cyclopropyl]-4H-1,2,4-oxadiazol-5-one] |
| 7.74 | Cc1cc(-n2nc3c(c2-n2ccn(-c4ccc5[nH]ncc5c4F)c2=O)[C@@H]2CC[C@H](C3)N2C(=O)c2cc3cc([C@H]4CCOC(C)(C)C4)ccc3n2[C@@]2(c3noc(=O)[nH]3)C[C@@H]2C)cc(C)c1F [Compound 406, 3-((1S,2S)-1-(5-((S)-2,2-dimethyltetrahydro-2H-pyran-4-yl)-2-((4S,7R)-3-(3-(4-fluoro-1H-indazol-5-yl)-2-oxo-2,3-dihydro-1H-imidazol-1-yl)-2-(4-fluoro-3,5-dimethylphenyl)-2,4,5,6,7,8-hexahydro-4,7-epiminocyclohepta [c]pyrazole-9-carbonyl)-1H-indol-1-yl)-2-methylcyclopropyl)-1,2,4-oxadiazol-5 (4H)-one] |
| 7.83 | Cc1cc(-n2nc3c(c2-n2ccn(-c4ccc5cnncc5c4F)c2=O)[C@@H]2CC[C@H](C3)N2C(=O)c2cc3cc([C@H]4CCOC(C)(C)C4)ccc3n2[C@@]2(c3noc(=O)[nH]3)C[C@@H]2C)cc(C)c1F [Compound 410, 3-((1S,2S)-1-(5-((S)-2,2-dimethyltetrahydro-2H-pyran-4-yl)-2-((4S,7R)-2-(4-fluoro-3,5-dimethylphenyl)-3-(3-(5-fluorophthalazin-6-yl)-2-oxo-2,3-dihydro-1H-imidazol-1-yl)-2,4,5,6,7,8-hexahydro-4,7-epiminocyclohepta [c]pyrazole-9-carbonyl)-1H-indol-1-yl)-2-methylcyclopropyl)-1,2,4-oxadiazol-5 (4H)-one] |

same assay, conditions: text to Table 1d, bridge atoms configured out of the plane or toward the reader

| SMILES | potency |
| --- | --- |
| Cc1cc(-n2nc3c(c2-n2ccn(-c4ccc5c(cnn5C)c4F)c2=O)[C@H]2CC[C@@H](C3)N2C(=O)c2cc3cc([C@H]4CCOC5(CC5)C4)ccc3n2[C@@]2(c3noc(=O)[nH]3)C[C@@H]2C)cc(C)c1F [Compound 411, 3-((1S,2S)-1-(2-((4R,7S)-3-(3-(4-fluoro-1-methyl-1H-indazol-5-yl)-2-oxo-2,3-dihydro-1H-imidazol-1-yl)-2-(4-fluoro-3,5-dimethylphenyl)-2,4,5,6,7,8-hexahydro-4,7-epiminocyclohepta [c]pyrazole-9-carbonyl)-5-((S)-4-oxaspiro[2.5]octan-7-yl)-1H-indol-1-yl)-2-methylcyclopropyl)-1,2,4-oxadiazol-5 (4H)-one] | little or no potency |
